# In paper PMC8429728, “TNK1 is a ubiquitin-binding and 14-3-3-regulated kinase that can be targeted to block tumor growth” (Nature Communications, 2021):
# Read-outs that look alike come from different tables or passages of the source.
# Experiments:
# Assay in all cases: biochemical
# Parameters in all cases: Reaction Biology 371-kinase panel at Km ATP, per cent enzyme activity relative to DMSO, single dose in duplicate
# Details in all cases: duplicate measurements, Km ATP
# [1] = target: T1, P38g (Homo sapiens, UniProt P53778)
# T1 construct: gene MAPK12
# Summary of the method: (§1)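 Activity of each kinase, normalised to DMSO-treated controls, served as the read-out. The inhibitor was tested at 300 nM against 371 kinases in vitro. Curves fitted by variable-slope sigmoidal dose-response, constrained to a bottom of 0, gave IC50.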
# [2] = target: ZIPK/DAPK3 (Homo sapiens, UniProt O43293)
# Sequence of ZIPK/DAPK3 (O43293 whole entry): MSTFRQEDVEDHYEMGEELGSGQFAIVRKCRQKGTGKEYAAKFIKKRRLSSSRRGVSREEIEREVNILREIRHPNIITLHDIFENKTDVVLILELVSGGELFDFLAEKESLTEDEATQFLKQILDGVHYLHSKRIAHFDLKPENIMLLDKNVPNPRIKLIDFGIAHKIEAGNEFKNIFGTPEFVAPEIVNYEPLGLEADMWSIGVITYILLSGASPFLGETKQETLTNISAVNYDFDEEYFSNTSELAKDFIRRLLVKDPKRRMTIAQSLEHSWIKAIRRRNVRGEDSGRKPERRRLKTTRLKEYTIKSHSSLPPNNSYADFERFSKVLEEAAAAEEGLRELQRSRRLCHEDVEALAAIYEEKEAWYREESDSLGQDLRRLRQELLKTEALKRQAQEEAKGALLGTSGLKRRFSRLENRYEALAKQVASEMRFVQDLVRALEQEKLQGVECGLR
# Summary of the method: as §1
# [3] = target: KDR/VEGFR2 (Homo sapiens, UniProt P35968)
# Sequence of KDR/VEGFR2 (P35968 whole entry): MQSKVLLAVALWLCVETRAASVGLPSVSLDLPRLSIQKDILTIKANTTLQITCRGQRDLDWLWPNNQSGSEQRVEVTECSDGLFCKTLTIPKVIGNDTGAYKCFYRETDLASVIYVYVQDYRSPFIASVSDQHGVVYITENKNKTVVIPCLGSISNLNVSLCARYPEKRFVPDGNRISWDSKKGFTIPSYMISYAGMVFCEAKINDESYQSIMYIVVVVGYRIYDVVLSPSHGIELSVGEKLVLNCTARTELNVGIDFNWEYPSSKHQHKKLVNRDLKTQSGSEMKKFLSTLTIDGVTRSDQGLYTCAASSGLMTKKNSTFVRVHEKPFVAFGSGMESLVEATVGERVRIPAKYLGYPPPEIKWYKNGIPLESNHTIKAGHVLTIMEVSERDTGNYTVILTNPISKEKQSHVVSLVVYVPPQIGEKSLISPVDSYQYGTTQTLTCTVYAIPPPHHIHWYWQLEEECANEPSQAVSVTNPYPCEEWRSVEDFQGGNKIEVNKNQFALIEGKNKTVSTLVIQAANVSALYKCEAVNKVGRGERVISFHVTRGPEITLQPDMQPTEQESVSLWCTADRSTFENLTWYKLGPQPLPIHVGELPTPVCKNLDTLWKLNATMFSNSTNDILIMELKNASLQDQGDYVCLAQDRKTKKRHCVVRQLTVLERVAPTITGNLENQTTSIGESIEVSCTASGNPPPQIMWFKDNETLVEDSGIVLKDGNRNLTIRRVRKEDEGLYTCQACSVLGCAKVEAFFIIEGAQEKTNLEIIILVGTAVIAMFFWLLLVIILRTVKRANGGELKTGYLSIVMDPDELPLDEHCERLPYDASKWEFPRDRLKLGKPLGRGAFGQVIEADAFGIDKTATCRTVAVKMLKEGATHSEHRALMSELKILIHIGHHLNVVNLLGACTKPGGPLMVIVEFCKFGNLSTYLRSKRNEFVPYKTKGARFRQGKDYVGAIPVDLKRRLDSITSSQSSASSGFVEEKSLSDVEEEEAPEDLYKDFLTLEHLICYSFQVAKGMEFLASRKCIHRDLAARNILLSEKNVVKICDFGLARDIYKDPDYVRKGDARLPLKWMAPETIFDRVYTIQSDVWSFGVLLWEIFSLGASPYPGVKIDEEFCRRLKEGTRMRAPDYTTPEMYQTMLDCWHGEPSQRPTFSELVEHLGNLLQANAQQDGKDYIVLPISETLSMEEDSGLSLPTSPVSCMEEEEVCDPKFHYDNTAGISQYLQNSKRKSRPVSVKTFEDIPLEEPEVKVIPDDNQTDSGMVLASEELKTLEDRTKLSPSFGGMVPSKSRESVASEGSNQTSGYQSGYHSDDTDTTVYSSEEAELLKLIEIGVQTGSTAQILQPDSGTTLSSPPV
# Summary of the method: as §1
# [4] = target: PKN3/PRK3 (Homo sapiens, UniProt Q6P5Z2)
# Summary of the method: as §1
# [5] = target: DYRK1B (Homo sapiens, UniProt Q9Y463)
# Summary of the method: as §1
# [6] = target: EPHB2 (Homo sapiens, UniProt P29323)
# Summary of the method: as §1
# [7] = target: BMPR2 (Homo sapiens, UniProt Q13873)
# Sequence of BMPR2 (Q13873 whole entry): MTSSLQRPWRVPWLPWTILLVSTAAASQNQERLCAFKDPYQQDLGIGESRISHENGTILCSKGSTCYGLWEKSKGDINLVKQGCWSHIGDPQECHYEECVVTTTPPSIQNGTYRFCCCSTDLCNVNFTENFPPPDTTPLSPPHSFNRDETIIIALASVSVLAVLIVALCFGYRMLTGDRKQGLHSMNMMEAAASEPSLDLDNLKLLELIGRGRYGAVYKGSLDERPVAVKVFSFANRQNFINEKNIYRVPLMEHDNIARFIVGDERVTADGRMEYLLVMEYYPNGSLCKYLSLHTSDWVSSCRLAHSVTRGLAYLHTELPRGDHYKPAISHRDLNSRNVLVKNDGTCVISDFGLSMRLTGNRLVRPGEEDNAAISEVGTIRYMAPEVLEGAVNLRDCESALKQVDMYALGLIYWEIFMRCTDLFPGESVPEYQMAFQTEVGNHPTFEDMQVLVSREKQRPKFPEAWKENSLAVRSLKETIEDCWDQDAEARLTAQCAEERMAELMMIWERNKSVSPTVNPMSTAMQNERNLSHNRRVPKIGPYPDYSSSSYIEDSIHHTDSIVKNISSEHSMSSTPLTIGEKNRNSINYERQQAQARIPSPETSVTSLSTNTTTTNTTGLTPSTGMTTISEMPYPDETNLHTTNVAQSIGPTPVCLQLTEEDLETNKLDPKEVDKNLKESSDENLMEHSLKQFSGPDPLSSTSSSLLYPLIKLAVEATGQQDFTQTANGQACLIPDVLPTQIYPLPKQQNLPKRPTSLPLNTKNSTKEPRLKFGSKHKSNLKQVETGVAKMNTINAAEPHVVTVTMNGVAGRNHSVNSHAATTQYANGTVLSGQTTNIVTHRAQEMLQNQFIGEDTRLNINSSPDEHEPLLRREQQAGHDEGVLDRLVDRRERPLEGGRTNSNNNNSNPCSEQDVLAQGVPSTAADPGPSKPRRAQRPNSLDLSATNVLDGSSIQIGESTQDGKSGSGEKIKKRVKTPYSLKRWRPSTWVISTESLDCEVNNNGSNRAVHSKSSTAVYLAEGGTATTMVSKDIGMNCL
# Summary of the method: as §1
# [8] = target: EPHA2 (Homo sapiens, UniProt P29317)
# Summary of the method: as §1
# [9] = target: EPHA8 (Homo sapiens, UniProt P29322)
# Summary of the method: as §1
# [10] = target: LATS2 (Homo sapiens, UniProt Q9NRM7)
# Summary of the method: as §1
# [11] = target: T2, CK2a (Homo sapiens, UniProt P68400)
# T2 construct: gene CSNK2A1
# T2 sequence (P68400 whole entry): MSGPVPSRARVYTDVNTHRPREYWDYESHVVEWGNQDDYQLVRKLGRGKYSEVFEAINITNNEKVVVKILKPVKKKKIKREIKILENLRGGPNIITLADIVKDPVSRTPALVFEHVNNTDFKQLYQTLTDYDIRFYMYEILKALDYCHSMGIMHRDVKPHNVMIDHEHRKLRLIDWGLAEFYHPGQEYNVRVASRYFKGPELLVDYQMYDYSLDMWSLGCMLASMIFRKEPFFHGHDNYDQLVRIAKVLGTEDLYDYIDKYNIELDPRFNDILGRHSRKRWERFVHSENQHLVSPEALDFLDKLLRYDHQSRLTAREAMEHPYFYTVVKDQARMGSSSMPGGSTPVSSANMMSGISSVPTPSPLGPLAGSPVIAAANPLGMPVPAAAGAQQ
# Summary of the method: as §1
# [12] = target: EPHB3 (Homo sapiens, UniProt P54753)
# Sequence of EPHB3 (P54753 whole entry): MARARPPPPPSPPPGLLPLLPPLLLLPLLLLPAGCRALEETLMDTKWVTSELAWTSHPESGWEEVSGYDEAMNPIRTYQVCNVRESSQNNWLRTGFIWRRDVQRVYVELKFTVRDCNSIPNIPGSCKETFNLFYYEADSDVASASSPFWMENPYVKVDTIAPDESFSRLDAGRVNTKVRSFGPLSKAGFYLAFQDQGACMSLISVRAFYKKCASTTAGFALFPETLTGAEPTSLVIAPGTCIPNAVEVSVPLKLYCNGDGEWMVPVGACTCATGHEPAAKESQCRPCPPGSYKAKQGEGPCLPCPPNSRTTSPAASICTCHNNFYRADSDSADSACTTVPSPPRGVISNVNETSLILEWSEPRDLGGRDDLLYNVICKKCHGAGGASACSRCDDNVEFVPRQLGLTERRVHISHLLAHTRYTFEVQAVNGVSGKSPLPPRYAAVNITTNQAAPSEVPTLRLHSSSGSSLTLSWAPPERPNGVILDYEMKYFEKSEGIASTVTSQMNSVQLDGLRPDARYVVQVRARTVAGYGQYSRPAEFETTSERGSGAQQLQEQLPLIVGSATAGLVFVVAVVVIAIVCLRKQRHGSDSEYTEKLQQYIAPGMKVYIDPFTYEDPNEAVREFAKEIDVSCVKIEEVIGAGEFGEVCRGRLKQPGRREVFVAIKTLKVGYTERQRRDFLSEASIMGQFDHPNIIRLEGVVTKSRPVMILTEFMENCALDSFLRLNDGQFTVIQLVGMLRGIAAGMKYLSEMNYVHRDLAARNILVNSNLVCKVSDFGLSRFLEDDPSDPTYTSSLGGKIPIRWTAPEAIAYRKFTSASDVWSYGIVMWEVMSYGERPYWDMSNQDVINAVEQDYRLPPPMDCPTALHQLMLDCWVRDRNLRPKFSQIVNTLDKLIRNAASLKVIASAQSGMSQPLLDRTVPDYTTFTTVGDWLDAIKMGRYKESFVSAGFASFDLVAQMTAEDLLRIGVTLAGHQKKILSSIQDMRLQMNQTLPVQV
# Summary of the method: as §1
# [13] = target: T3, PKA (Homo sapiens, UniProt P17612)
# T3 construct: gene PRKACA
# Summary of the method: as §1
# [14] = target: BLK (Homo sapiens, UniProt P51451)
# Sequence of BLK (P51451 whole entry): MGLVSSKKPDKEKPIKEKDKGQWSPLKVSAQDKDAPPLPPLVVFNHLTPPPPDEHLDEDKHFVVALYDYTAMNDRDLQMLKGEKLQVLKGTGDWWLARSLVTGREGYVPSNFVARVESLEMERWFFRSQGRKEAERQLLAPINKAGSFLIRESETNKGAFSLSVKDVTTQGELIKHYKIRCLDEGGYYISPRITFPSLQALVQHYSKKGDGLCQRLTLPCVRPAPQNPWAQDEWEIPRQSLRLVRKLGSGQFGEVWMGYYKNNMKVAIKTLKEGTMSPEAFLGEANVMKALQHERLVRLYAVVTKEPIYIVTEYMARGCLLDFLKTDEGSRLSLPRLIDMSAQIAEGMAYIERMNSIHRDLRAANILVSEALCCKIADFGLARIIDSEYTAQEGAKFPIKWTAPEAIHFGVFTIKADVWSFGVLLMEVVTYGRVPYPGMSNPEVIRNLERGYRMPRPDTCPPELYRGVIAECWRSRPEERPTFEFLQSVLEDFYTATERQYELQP
# Summary of the method: as §1
# [15] = target: EPHB4 (Homo sapiens, UniProt P54760)
# Summary of the method: as §1
# [16] = target: FES/FPS (Homo sapiens, UniProt P07332)
# Summary of the method: as §1
# [17] = read-out: % Enzyme Activity (relative to DMSO controls) / TP-0005801 (0.3µM) / Data 1
# [18] = read-out: % Enzyme Activity (relative to DMSO controls) / TP-0005801 (0.3µM) / Data 2
smiles,measurement,setting,value
COc1cc(N2CCN(C)CC2)c(C)cc1Nc1ncc(Br)c(Nc2cccnc2N(C)C)n1 [TP-5801],remaining activity at 0.3 µM,[1]; [17],104%
same,remaining activity at 0.3 µM,[1]; [18],102%
same,remaining activity at 0.3 µM,[2]; [17],81%
same,remaining activity at 0.3 µM,[2]; [18],79.4%
same,remaining activity at 0.3 µM,[3]; [17],93.5%
same,remaining activity at 0.3 µM,[3]; [18],93.2%
same,remaining activity at 0.3 µM,[4]; [17],95.4%
same,remaining activity at 0.3 µM,[4]; [18],93.7%
same,remaining activity at 0.3 µM,[5]; [17],77.1%
same,remaining activity at 0.3 µM,[5]; [18],75.8%
same,remaining activity at 0.3 µM,[6]; [17],86.4%
same,remaining activity at 0.3 µM,[6]; [18],85.6%
same,remaining activity at 0.3 µM,[7]; [17],89.7%
same,remaining activity at 0.3 µM,[7]; [18],89.2%
same,remaining activity at 0.3 µM,[8]; [17],98.3%
same,remaining activity at 0.3 µM,[8]; [18],95.9%
same,remaining activity at 0.3 µM,[9]; [17],95.1%
same,remaining activity at 0.3 µM,[9]; [18],93.8%
same,remaining activity at 0.3 µM,[10]; [17],95.8%
same,remaining activity at 0.3 µM,[10]; [18],92.4%
same,remaining activity at 0.3 µM,[11]; [17],42.4%
same,remaining activity at 0.3 µM,[11]; [18],41.8%
same,remaining activity at 0.3 µM,[12]; [17],104%
same,remaining activity at 0.3 µM,[12]; [18],102%
same,remaining activity at 0.3 µM,[13]; [17],110%
same,remaining activity at 0.3 µM,[13]; [18],108%
same,remaining activity at 0.3 µM,[14]; [17],88.3%
same,remaining activity at 0.3 µM,[14]; [18],87.5%
same,remaining activity at 0.3 µM,[15]; [17],103%
same,remaining activity at 0.3 µM,[15]; [18],102%
same,remaining activity at 0.3 µM,[16]; [17],18.2%
same,remaining activity at 0.3 µM,[16]; [18],17.6%
